Assay results published in US9765060B2 (Gilead Sciences, Inc., priority 2014, dated 2017).
Read-outs that look alike come from different tables or passages of the source.

Target: PI3K isoform δ (Homo sapiens (Human), UniProt O00329)
Experiment: TR-FRET assay of enzymatic activity of class I PI3K isoforms
Conditions: TR-FRET, 2× Km ATP, 2 μM PIP2, incubated for 30 minutes at 25° C.
[1] = read-out: IC50 (nM) for PI3K isoform δ (Table 3)
[2] = read-out: IC50 (nM) for PI3K isoform δ (Table 2)
[3] = IC50 (nM) for PI3K isoform δ (Table 3)

Chain of PI3K isoform δ (O00329 whole entry, canonical isoform): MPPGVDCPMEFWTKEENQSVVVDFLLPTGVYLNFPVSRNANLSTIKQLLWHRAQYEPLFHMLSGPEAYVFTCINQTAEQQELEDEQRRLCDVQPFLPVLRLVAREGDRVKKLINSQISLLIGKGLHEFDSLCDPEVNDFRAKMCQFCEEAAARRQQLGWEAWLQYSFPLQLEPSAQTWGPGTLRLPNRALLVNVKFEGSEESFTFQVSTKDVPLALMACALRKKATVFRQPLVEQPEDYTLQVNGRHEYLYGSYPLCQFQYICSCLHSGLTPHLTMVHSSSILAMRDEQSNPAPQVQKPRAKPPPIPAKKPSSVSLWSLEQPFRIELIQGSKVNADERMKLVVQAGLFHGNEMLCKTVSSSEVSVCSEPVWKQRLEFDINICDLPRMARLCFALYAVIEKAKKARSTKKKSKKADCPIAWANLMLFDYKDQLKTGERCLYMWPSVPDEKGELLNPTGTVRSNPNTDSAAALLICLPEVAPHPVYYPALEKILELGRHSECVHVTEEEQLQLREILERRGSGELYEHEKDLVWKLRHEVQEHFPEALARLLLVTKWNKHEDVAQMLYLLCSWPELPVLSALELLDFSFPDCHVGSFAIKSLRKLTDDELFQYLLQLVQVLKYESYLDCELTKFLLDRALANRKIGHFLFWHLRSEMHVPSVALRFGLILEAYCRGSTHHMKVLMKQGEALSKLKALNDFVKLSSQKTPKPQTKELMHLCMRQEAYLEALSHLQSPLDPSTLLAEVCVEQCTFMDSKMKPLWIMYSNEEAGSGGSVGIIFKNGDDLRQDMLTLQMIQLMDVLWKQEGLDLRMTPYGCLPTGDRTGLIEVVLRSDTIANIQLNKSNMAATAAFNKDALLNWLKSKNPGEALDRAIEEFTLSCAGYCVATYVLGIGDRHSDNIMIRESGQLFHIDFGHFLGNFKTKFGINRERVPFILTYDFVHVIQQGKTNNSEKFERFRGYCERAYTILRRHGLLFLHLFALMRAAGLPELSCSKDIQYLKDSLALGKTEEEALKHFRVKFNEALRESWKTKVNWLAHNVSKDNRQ
Chain of PI3K isoform δ (P27986 whole entry partner, canonical isoform): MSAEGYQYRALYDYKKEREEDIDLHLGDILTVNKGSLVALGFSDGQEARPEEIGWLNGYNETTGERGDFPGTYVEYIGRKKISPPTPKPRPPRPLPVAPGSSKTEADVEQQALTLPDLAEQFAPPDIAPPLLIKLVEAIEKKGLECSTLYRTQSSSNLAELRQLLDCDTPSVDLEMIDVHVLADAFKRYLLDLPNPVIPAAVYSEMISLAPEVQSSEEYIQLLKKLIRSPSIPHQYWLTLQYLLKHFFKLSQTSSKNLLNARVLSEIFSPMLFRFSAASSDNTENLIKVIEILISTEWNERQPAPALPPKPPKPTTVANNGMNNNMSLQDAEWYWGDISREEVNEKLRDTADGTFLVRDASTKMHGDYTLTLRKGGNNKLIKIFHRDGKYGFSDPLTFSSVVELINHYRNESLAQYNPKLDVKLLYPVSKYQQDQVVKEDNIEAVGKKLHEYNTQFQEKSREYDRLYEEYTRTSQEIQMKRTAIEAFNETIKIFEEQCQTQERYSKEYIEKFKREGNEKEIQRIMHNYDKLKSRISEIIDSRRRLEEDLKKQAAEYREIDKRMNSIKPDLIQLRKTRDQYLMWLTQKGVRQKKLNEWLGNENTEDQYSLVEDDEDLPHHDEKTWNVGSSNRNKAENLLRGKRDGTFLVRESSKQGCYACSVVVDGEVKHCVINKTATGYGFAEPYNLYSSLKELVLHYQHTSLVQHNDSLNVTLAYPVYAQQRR
From the text: TR-FRET monitored the formation of 3,4,5-inositol triphosphate molecule that competed with fluorescently labeled PIP3 for binding to the GRP-1 pleckstrin homology domain protein. […] Class I PI3K isoforms were expressed and purified as heterodimeric recombinant proteins. All assay reagents and buffers for the TR-FRET assay were purchased from Millipore.

| SMILES | IC50 [1] [nM] | further results |
| --- | --- | --- |
| C[C@H](Nc1nc(N)nc(N)c1C#N)c1nc2cccc(OCC(=O)N3CCCCC3)c2c(=O)n1-c1ccccc1 [Compound 28, (S)-2,4-diamino-6-((1-(4-oxo-5-(2-oxo-2-(piperidin-1-yl)ethoxy)-3-phenyl-3,4-dihydroquinazolin-2-yl)ethyl)amino)pyrimidine-5-carbonitrile] | 2 | – |
| CS(=O)(=O)c1cccc2nc([C@@H](Nc3nc(N)nc(N)c3C#N)C3CC3)n(-c3cccc(F)c3)c(=O)c12 [Compound 5a, (S)-2,4-diamino-6-((cyclopropyl(3-(3-fluorophenyl)-5-(methylsulfonyl)-4-oxo-3,4-dihydroquinazolin-2-yl)methyl)amino)pyrimidine-5-carbonitrile] | – | IC50 [2]: 5 nM |
| C[C@H](Nc1nc(N)nc(N)c1C#N)c1nc2cccc(OCC(C)(CO)CO)c2c(=O)n1-c1ccccc1 [Compound 29, (S)-2,4-diamino-6-((1-(5-(3-hydroxy-2-(hydroxymethyl)-2-methylpropoxy)-4-oxo-3-phenyl-3,4-dihydroquinazolin-2-yl)ethyl)amino)pyrimidine-5-carbonitrile] | 220 | – |
| N#Cc1c(N)nc(N)nc1N[C@H](c1nc2cccc(Cl)c2c(=O)n1-c1cc(F)cc(F)c1)C1CC1 [Compound 13a, (S)-2,4-diamino-6-(((5-chloro-3-(3,5-difluorophenyl)-4-oxo-3,4-dihydroquinazolin-2-yl)(cyclopropyl)methyl)amino)pyrimidine-5-carbonitrile] | – | IC50 [2]: 1 nM |
| N#Cc1c(N)nc(N)nc1N1C[C@H](NC(=O)C(F)F)C[C@H]1c1nc2cccc(F)c2c(=O)n1-c1cc(F)cc(F)c1 [Compound 111, N-((3R,5S)-1-(2,6-diamino-5-cyanopyrimidin-4-yl)-5-(3-(3,5-difluorophenyl)-5-fluoro-4-oxo-3,4-dihydroquinazolin-2-yl)pyrrolidin-3-yl)-2,2-difluoroacetamide] | 9 | – |
| C[C@H](Nc1nc(N)nc(N)c1C#N)c1nc2cccc(OCCN3CCN(c4ccccc4)CC3)c2c(=O)n1-c1ccccc1 [Compound 31, (S)-2,4-diamino-6-((1-(4-oxo-3-phenyl-5-(2-(4-phenylpiperazin-1-yl)ethoxy)-3,4-dihydroquinazolin-2-yl)ethyl)amino)pyrimidine-5-carbonitrile] | 4 | – |
| C[C@H](Nc1nc(N)nc(N)c1C#N)c1nc2cccc(CCCN3CCC4(COC4)C3)c2c(=O)n1-c1ccccc1 [Compound 63, (S)-4-((1-(5-(3-(2-oxa-6-azaspiro[3.4]octan-6-yl)propyl)-4-oxo-3-phenyl-3,4-dihydroquinazolin-2-yl)ethyl)amino)-2,6-diaminopyrimidine-5-carbonitrile] | 0.8 | – |
| C[C@H](Nc1nc(N)nc(N)c1C#N)c1nc2cccc(CCCN3CCOCC3(C)C)c2c(=O)n1-c1ccccc1 [Compound 53, (S)-2,4-diamino-6-((1-(5-(3-(3,3-dimethylmorpholino)propyl)-4-oxo-3-phenyl-3,4-dihydroquinazolin-2-yl)ethyl)amino)pyrimidine-5-carbonitrile] | 0.7 | – |
| C[C@H](Nc1nc(N)nc(N)c1C#N)c1nc2cccc(OCCN3CCOCC3)c2c(=O)n1-c1ccccc1 [Compound 22, (S)-2,4-diamino-6-((1-(5-(2-morpholinoethoxy)-4-oxo-3-phenyl-3,4-dihydroquinazolin-2-yl)ethyl)amino)pyrimidine-5-carbonitrile] | 22 | – |
| N#Cc1c(N)nc(N)nc1N[C@H](c1nc2cccc(F)c2c(=O)n1-c1cc(F)cc(F)c1)C1CC1 [Compound 14a, (S)-2,4-diamino-6-((cyclopropyl(3-(3,5-difluorophenyl)-5-fluoro-4-oxo-3,4-dihydroquinazolin-2-yl)methyl)amino)pyrimidine-5-carbonitrile] | – | IC50 [2]: 19 nM |
| N#Cc1c(N)nc(N)nc1N[C@H](c1nc2cccc(CCCN3CCCC3)c2c(=O)n1-c1ccccc1)C1CC1 [Compound 56, (S)-2,4-diamino-6-((cyclopropyl(4-oxo-3-phenyl-5-(3-(pyrrolidin-1-yl)propyl)-3,4-dihydroquinazolin-2-yl)methyl)amino)pyrimidine-5-carbonitrile] | 3 | – |
| C[C@H](Nc1nc(N)nc(N)c1C#N)c1nc2cccc(OCC3(C)COC3)c2c(=O)n1-c1ccccc1 [Compound 34, (S)-2,4-diamino-6-((1-(5-((3-methyloxetan-3-yl)methoxy)-4-oxo-3-phenyl-3,4-dihydroquinazolin-2-yl)ethyl)amino)pyrimidine-5-carbonitrile] | 46 | – |
| C[C@H](Nc1nc(N)nc(Cl)c1C#N)c1nc2c(F)ccc(Cl)c2c(=O)n1-c1ccccc1 [Compound 66, (S)-2-amino-4-chloro-6-((1-(5-chloro-8-fluoro-4-oxo-3-phenyl-3,4-dihydroquinazolin-2-yl)ethyl)amino)pyrimidine-5-carbonitrile] | 0.7 | – |
| C[C@H](Nc1nc(N)nc(Cl)c1C#N)c1nc2cccc(F)c2c(=O)n1-c1cc(F)cc(F)c1 [Compound 102, (S)-2-amino-4-chloro-6-((1-(3-(3,5-difluorophenyl)-5-chloro-4-oxo-3-phenyl-3,4-dihydroquinazolin-2-yl)ethyl)amino)pyrimidine-5-carbonitrile] | – | IC50 [3]: 30 nM |
| C[C@H](Nc1nc(N)nc(N)c1C#N)c1nc2cccc(OCCN3CCCC3=O)c2c(=O)n1-c1ccccc1 [Compound 26] | 21 | – |
| C[C@H](Nc1nc(N)nc(N)c1C#N)c1nc2cccc(CCCN3CCCCC3)c2c(=O)n1-c1ccccc1 [Compound 46, (S)-2,4-diamino-6-((1-(4-oxo-3-phenyl-5-(3-(piperidin-1-yl)propyl)-3,4-dihydroquinazolin-2-yl)ethyl)amino)pyrimidine-5-carbonitrile] | 0.4 | – |
| C[C@H](Nc1ncnc(N)c1C#N)c1nc2cccc(Cl)c2c(=O)n1-c1ccccc1 [Compound Y, (S)-4-amino-6-((1-(5-chloro-4-oxo-3-phenyl-3,4-dihydroquinazolin-2-yl)ethyl)amino)pyrimidine-5-carbonitrile, reference compound] | – | IC50 [2]: 0.4 nM |
| C[C@H](Nc1nc(N)nc(N)c1C#N)c1nc2cccc(OCCN(C)C)c2c(=O)n1-c1ccccc1 [Compound 27] | – | IC50 [3]: 57 nM |

Further lines, with some results ahead:

| IC50 [1] [nM] | SMILES | further results |
| --- | --- | --- |
| 5 | N#Cc1c(N)nc(N)nc1N1CCC[C@H]1c1nc2c(C#N)cccc2c(=O)n1-c1cccc(C(F)F)c1 [Compound 90, (S)-2-(1-(2,6-diamino-5-cyanopyrimidin-4-yl)pyrrolidin-2-yl)-3-(3-(difluoromethyl)phenyl)-4-oxo-3,4-dihydroquinazoline-8-carbonitrile] | – |
| 7 | N#Cc1c(N)nc(N)nc1N1CCC[C@H]1c1nc2c(Cl)ccc(Cl)c2c(=O)n1-c1cccc(S(N)(=O)=O)c1 (single isomer, unassigned) [Compound 92] | – |
| 17 | N#Cc1cc(F)cc(-n2c([C@@H]3CCCN3c3nc(N)nc(N)c3C#N)nc3cccc(Cl)c3c2=O)c1 [Compound 88, (S)-2,4-diamino-6-(2-(5-chloro-3-(3-cyano-5-fluorophenyl)-4-oxo-3,4-dihydroquinazolin-2-yl)pyrrolidin-1-yl)pyrimidine-5-carbonitrile] | – |
| 10 | N#Cc1c(N)nc(N)nc1N1CCC[C@H]1c1nc2c(Cl)cccc2c(=O)n1-c1cc(F)cc(F)c1 [Compound 85, (S)-2,4-diamino-6-(2-(8-chloro-3-(3,5-difluorophenyl)-4-oxo-3,4-dihydroquinazolin-2-yl)pyrrolidin-1-yl)pyrimidine-5-carbonitrile] | – |
| 9 | C[C@H](Nc1nc(N)nc(N)c1C#N)c1nc2cccc(S(=O)(=O)CCO)c2c(=O)n1-c1cccc(F)c1 [Compound 78, (S)-2,4-diamino-6-((1-(3-(3-fluorophenyl)-5-((2-hydroxyethyl)sulfonyl)-4-oxo-3,4-dihydroquinazolin-2-yl)ethyl)amino)pyrimidine-5-carbonitrile] | – |
| 3 | N#Cc1c(N)nc(N)nc1N[C@H](c1nc2c(F)ccc(CCCN3CCCC3)c2c(=O)n1-c1ccccc1)C1CC1 [Compound 58, (S)-2,4-diamino-6-((cyclopropyl(8-fluoro-4-oxo-3-phenyl-5-(3-(pyrrolidin-1-yl)propyl)-3,4-dihydroquinazolin-2-yl)methyl)amino)pyrimidine-5-carbonitrile] | – |
| 2 | N#Cc1c(N)nc(N)nc1N1C[C@@H](NC(=O)C(F)(F)F)C[C@H]1c1nc2cccc(Cl)c2c(=O)n1-c1ccccc1 [Compound 108, N-((3S,5S)-5-(5-chloro-4-oxo-3-phenyl-3,4-dihydroquinazolin-2-yl)-1-(2,6-diamino-5-cyanopyrimidin-4-yl)pyrrolidin-3-yl)-2,2,2-trifluoroacetamide] | – |
| 24 | C[C@H](Nc1nc(N)nc(N)c1C#N)c1nc2cccc(OCCC3CCCN3C)c2c(=O)n1-c1ccccc1 (stereo partly drawn) [Compound 33, 2,4-diamino-6-(((1S)-1-(5-(2-(1-methylpyrrolidin-2-yl)ethoxy)-4-oxo-3-phenyl-3,4-dihydroquinazolin-2-yl)ethyl)amino)pyrimidine-5-carbonitrile] | – |
| 2 | N#Cc1c(N)nc(N)nc1N[C@H](c1nc2c(F)ccc(CCCN3CCCCC3)c2c(=O)n1-c1ccccc1)C1CC1 [Compound 59, (S)-2,4-diamino-6-((cyclopropyl(8-fluoro-4-oxo-3-phenyl-5-(3-(piperidin-1-yl)propyl)-3,4-dihydroquinazolin-2-yl)methyl)amino)pyrimidine-5-carbonitrile] | – |
| 2 | C[C@@H]1C[C@@H](c2nc3cccc(Cl)c3c(=O)n2-c2ccccc2)N(c2nc(N)nc(N)c2C#N)C1 [Compound 94, 2,4-diamino-6-((2S,4R)-2-(5-chloro-4-oxo-3-phenyl-3,4-dihydroquinazolin-2-yl)-4-methylpyrrolidin-1-yl)pyrimidine-5-carbonitrile] | – |
| 23 | N#Cc1c(N)nc(N)nc1N1CCC[C@H]1c1nc2cccc(F)c2c(=O)n1-c1cc(F)cc(F)c1 [Compound 87, (S)-2,4-diamino-6-(2-(3-(3,5-difluorophenyl)-5-fluoro-4-oxo-3,4-dihydroquinazolin-2-yl)pyrrolidin-1-yl)pyrimidine-5-carbonitrile] | – |
